The source of these data is patent US9446081B2, “Pharmaceutical composition for preventing and treating complications of diabetes containing a traditional oriental medicine extract or a fraction thereof as an active ingredient” (KOREA INSTITUTE OF ORIENTAL MEDICINE, priority 2011, dated 2016).

The subject of experiment [1] is spontaneous diabetic Torii (SDT) rats. Nature of the experiment: Inhibition of diabetic retinopathy in type II diabetic animal model. Format: in vivo, rat. The conditions noted are these: oral once a day 16 weeks, metformin 350 mg/kg. The protocol: (§1) To investigate the effect of the extract of Homonoia riparia Lour. on the prevention and treatment of diabetic complications in spontaneous diabetic Torii (SDT) rats, the type II diabetic animal model, the extract of Homonoia riparia Lour. was orally administered to the animal for 16 weeks. 10-week old male SDT rats (CLEA Japan Inc., Tokyo, Japan) were adapted for 1 week, and then continued to raise for 15 weeks until the blood sugar level reached 300 mg/dl. Feed and water were provided freely. 15 weeks later, the rats were grouped into 5 group (8 rats per group), to which the extract of Homonoia riparia Lour. (HR) and the control drug MET were administered orally once a day. The experimental groups included the normal group (NOR), the diabetic group (DM), the metformin (350 mg/kg) treated diabetic group (MET), the Homonoia riparia Lour. extract (100 mg/kg) treated diabetic group (HR-100), and the Homonoia riparia Lour. extract (250 mg/kg) treated diabetic group (HR-250). Each group was administered with the test samples orally once a day for 16 weeks. Urine was picked up 24 hours before autopsy. The organs extracted by autopsy were stored at −80° C.
When hyperglycemic state continues, retinal vessels in eyeball become mal-functioning to cause blood-retinal barrier breakage. […]

Experiment [2] has the same test system. Nature of the experiment: Diabetic nephropathy in type II diabetic animal model. Format: in vivo, rat. The conditions noted are these: oral once a day 16 weeks. The method, then: as §1
To investigate the effect of the extract of Homonoia riparia Lour. on the functions of the kidney suffering from chronic diabetes, urine was taken from the animal model 24 hours before the autopsy, with which renal indices {proteinuria, albuminuria, and glomerular filtration rate (Ccr)}, and glycation products (AGES and CML) were quantified. ELISA was performed to measure proteinuria, albuminuria, glomerular filtration rate, AGEs, CML, and podocyte (synaptopodin and WT-1). Particularly, the urine sample was mixed with coating buffer (50 mM carbonate buffer, pH 9.6) to make the final volume to be 100 μl (1:2), which was distributed in a 96-well plate. The plate stood at 37° C. for 3 hours and then washed with 0.05% PBST three times, followed by blocking with 3% skim milk. The plate stood as it was for 1 more hour and then washed. AGEs (Transgenic, JAPAN), CML (Transgenic, JAPAN), albumin, synaptopodin, and WT-1 (Santa Cruz, USA) antibodies were diluted respectively at the ratio of 1:1000, which were loaded in each well of the plate by 100 μl. The plate stood at 37° C. for 2 hours, and washed with 0.05% PBST. HRP-conjugated secondary antibody was loaded in each well of the plate by 100 μl, followed by reacting at 37° C. for 1 hour. 100 μl of the substrate, 3,3′,5,5′-tetramethylbenzidine (TMB) in 0.05% PBST was added to each well of the plate. 5 minutes later, the reaction was terminated by adding 1M H2SO4 solution (100 μl/well). Then OD was measured with an ELISA reader.
Immunological staining was performed as follows. After deparaffinization and hydration, the slide was reacted in 3% H2O2 solution for 10 minutes to deactivate endogenous peroxidase activity therein. Then, the slide was washed with PBS containing 0.05% tween 20 three times. To eliminate non-specific reaction, the slide was blocked with 5% AFB (animal free bock). The primary antibodies AGEs (Transgenic, Japan) and CML (Transgenic, Japan) were diluted (1:1000) and treated to the slide for 1 hour or overnight. After washing with PBS for 1 hour, the slide was treated with labeled streptavidin biotin (LSAB) kit (Dako, USA), followed by color development by using DAB (Dako, USA). Observation was performed under optical microscope.
The kidney was extracted from the animal model during the autopsy, which was fixed in 10% neutralized formalin for overnight. […]

Setting [3] is: extract 100 or 250 mg/kg, metformin 350 mg/kg, vs diabetic group (DM), FIG. 6.

For the molecule `CN(C)C(=N)N=C(N)N` [metformin], the “blood-retinal barrier breakage (fluorescein-dextran flown out of retinal vessels, non-perfusion area)” value in experiment [1] (extract 100 or 250 mg/kg (HR-100, HR-250), FIG. 2) is listed as “fluorescent material was merely observed”. The “pericyte loss, acellular capillary formation and closed vessels in retina” value in experiment [1] (extract 100 or 250 mg/kg, vs diabetic group, FIG. 3) is given as “significantly decreased”. Moreover, the “glomerular hypertrophy and mesangial matrix expansion / morphological changes (PAS staining)” value in experiment [2] (extract 100 or 250 mg/kg dose-dependently, metformin 350 mg/kg (not so significant), FIG. 9) is recorded as “decreased”. The “AGEs and CML in urine” value in experiment [2] (extract 100 or 250 mg/kg, metformin 350 mg/kg, FIG. 7) is “not much reduced”. For the same molecule, in experiment [2] (setting [3]), the albuminuria entry is “significantly reduced” and the proteinuria result was “higher”. Also, in experiment [2] (extract 100 or 250 mg/kg, metformin 350 mg/kg, vs diabetic group (DM), FIG. 10), the “collagen deposition in glomerulus (Masson's trichrome staining)” value is “not much different”.
